ChEMBL document CHEMBL4823249, “Discovery of a Pyrimidinedione Derivative as a Potent and Orally Bioavailable Axl Inhibitor” (J Med Chem, 2021)
pIC50: −log10 of the molar value.

Assays:
[1] = system: BaF3; assay: Antiproliferative activity against mouse BaF3/TEL-AXL cells incubated for 72 hrs by SRB or CCK8 assay; details: BaF3, 72 h
[2] = target: T1, Tyrosine-protein kinase receptor UFO (Homo sapiens, UniProt P30530); assay: Inhibition of AXL (unknown origin) using poly [Glu, Tyr] 4:1 as substrate incubated for 60 mins in presence of ATP by ELISA
T1 sequence (P30530 whole entry): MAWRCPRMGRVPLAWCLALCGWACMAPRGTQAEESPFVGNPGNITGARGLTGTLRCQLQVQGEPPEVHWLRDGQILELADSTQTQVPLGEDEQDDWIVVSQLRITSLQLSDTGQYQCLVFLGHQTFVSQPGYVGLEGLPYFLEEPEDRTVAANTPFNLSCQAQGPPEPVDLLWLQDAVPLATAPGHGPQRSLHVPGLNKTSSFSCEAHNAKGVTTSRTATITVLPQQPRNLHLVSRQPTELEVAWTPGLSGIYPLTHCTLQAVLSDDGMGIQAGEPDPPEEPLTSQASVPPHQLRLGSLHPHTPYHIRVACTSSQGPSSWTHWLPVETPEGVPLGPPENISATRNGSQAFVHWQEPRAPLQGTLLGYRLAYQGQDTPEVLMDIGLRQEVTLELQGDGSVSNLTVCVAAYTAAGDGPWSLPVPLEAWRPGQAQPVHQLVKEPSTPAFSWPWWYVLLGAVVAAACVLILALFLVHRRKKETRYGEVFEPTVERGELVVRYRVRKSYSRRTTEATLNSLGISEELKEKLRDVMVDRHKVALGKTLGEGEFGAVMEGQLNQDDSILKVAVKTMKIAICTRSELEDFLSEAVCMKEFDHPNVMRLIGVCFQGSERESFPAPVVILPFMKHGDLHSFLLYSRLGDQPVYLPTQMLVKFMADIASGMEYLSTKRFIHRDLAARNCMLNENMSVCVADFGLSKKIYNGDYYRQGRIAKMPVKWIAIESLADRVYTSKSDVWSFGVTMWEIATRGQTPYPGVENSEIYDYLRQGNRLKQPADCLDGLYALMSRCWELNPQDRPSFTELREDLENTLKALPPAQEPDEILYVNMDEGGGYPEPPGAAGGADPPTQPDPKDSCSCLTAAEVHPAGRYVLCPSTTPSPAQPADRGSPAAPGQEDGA

[3] = system: U-87 MG; assay: Antitumor activity against human U-87MG cells xenografted in BALB/c nude mouse assessed as tumor growth inhibition at 50 mg/kg, po administered once daily for 14 days by caliper method; type: functional, U-87MG ATCC; details: 336 h, time 14 day, read-out: TGI
[4] = system: BaF3; assay: Antitumor activity against mouse BaF3/TEL-AXL cells xenografted in BALB/c nude mouse assessed as tumor growth inhibition at 50 mg/kg, po administered once daily for 14 days by caliper method; type: functional; details: 336 h, time 14 day, read-out: TGI
[5] = AUC(0 to t) in Sprague-Dawley rat at 3 mg/kg, po measured upto 24 hrs by LC-MS analysis; type: ADME, organism-based; parameters: route oral, dose 3 mg/kg, time <=24; details: in vivo
[6] = Half life in Sprague-Dawley rat at 3 mg/kg, po measured upto 24 hrs by LC-MS analysis; type: ADME, organism-based; details: in vivo
[7] = AUC(0 to infinity) in Sprague-Dawley rat at 3 mg/kg, po measured upto 24 hrs by LC-MS analysis; type: ADME, organism-based; parameters: route oral, dose 3 mg/kg, time <=24; details: in vivo
[8] = Tmax in Sprague-Dawley rat at 3 mg/kg, po measured upto 24 hrs by LC-MS analysis; type: ADME, organism-based; details: in vivo
[9] = Cmax in Sprague-Dawley rat at 3 mg/kg, po measured upto 24 hrs by LC-MS analysis; type: ADME, organism-based; parameters: route oral, dose 3 mg/kg, time <=24; details: in vivo

Compound	pIC50 [1]	also measured
CC(=O)Nc1cc(Oc2ccc(NC(=O)c3cn(C(C)C)c(=O)n(-c4ccc(F)cc4)c3=O)cc2F)ccn1	> 9.70	
CC(C)n1cc(C(=O)Nc2ccc(Oc3ccnc(NC(=O)N4CCCC4)c3)c(F)c2)c(=O)n(-c2ccc(F)cc2)c1=O	> 9.70	
COc1cc(NC(=O)c2cn(C(C)C)c(=O)n(-c3ccc(F)cc3)c2=O)ccc1Oc1ccnc(-c2cnn(C)c2)c1		pIC50 [2]: < 6.00
CCOc1cn(-c2ccc(F)cc2)nc1C(=O)Nc1ccc(Oc2ccncc2-c2cnn(C)c2)cc1		pIC50 [2]: < 6.00
C[C@@H](Oc1cc(-c2cnn(C3CCNCC3)c2)cnc1N)c1c(Cl)ccc(F)c1Cl [CRIZOTINIB]		inhibition in vivo at 50 mg/kg [3]: 93.3%
CCC(=O)Nc1cc(Oc2ccc(NC(=O)c3cn(C(C)C)c(=O)n(-c4ccc(F)cc4)c3=O)cc2F)ccn1	> 9.70	
Nc1nc(Nc2ccc3c(c2)CC[C@@H](N2CCCC2)CC3)nn1-c1cc2c(nn1)-c1ccccc1CCC2 [BEMCENTINIB]	6.93	inhibition in vivo at 50 mg/kg [4]: 108%
Cn1cc(-c2cnccc2Oc2ccc(NC(=O)C3=C(c4ccccc4)c4ccccc4C3=O)cc2)cn1		pIC50 [2]: < 6.00
CC(C)n1cc(C(=O)Nc2ccc(Oc3ccnc(NC(=O)C4CCC4)c3)c(F)c2)c(=O)n(-c2ccc(F)cc2)c1=O	7.36	
CCc1ccc2c(c1)c(=O)c(C(=O)Nc1ccc(Oc3ccncc3-c3cnn(C)c3)cc1)c(C)n2C		pIC50 [2]: < 6.00
Cn1cc(-c2cnccc2Oc2ccc(NC(=O)c3c4c(cn(-c5ccccc5)c3=O)C(=O)CCC4)cc2)cn1		pIC50 [2]: < 6.00
CC(C)n1cc(C(=O)Nc2ccc(Oc3ccnc(NC(=O)N4CCOCC4)c3)c(F)c2)c(=O)n(-c2ccc(F)cc2)c1=O	> 9.70	
CCc1nc(C(N)=O)c(Nc2ccc(N3CCC(N4CCN(C)CC4)CC3)c(OC)c2)nc1NC1CCOCC1 [GILTERITINIB]	8.12	
CC(C)n1cc(C(=O)Nc2ccc(Oc3ccnc(-c4cn[nH]c4)c3)c(F)c2)c(=O)n(-c2ccc(F)cc2)c1=O	> 9.70	AUC(0-t) at 24 h [5]: 31600 ng·h/mL; half-life [6]: 1090 min; AUC(0-inf) [7]: 52200 ng·h/mL; Tmax [8]: 1.67 h; Cmax [9]: 2570 ng/mL
CC(C)n1cc(C(=O)Nc2ccc(Oc3ccnc(-c4cnn(CCN5CCN(C)CC5)c4)c3)c(F)c2)c(=O)n(-c2ccc(F)cc2)c1=O	7.71	

Second part, led by results:

pIC50 [1]	Compound	also measured
8.20	CC(C)n1cc(C(=O)Nc2ccc(Oc3ccnc(-c4cnn(C5CC5)c4)c3)c(F)c2)c(=O)n(-c2ccc(F)cc2)c1=O	
9.00	Cc1nn(C)cc1-c1cc(Oc2ccc(NC(=O)c3cn(C(C)C)c(=O)n(-c4ccc(F)cc4)c3=O)cc2F)ccn1	
8.55	CC(C)n1cc(C(=O)Nc2ccc(Oc3ccnc(-c4cnn(CC(C)(C)O)c4)c3)c(F)c2)c(=O)n(-c2ccc(F)cc2)c1=O	
8.72	CC(C)n1cc(C(=O)Nc2ccc(Oc3ccnc(-c4cnn(C)c4)c3)c(F)c2)c(=O)n(-c2ccc(F)cc2)c1=O	
